# Measurements reported in PubChem BioAssay AID651797 (The Scripps Research Institute Molecular Screening Center, 2012).
# The source made the active and inactive calls. The rule behind the calls is not given here.
# Biological target: Nuclear receptor coactivator 3 (Homo sapiens) (UniProt Q9Y6Q9)
# Assay: SRC3 (NCOA3) coactivator inhibitors, late-stage follow-up, selectivity assay for SRC1 inhibitor project, cell-based, luminescence reporter (AID 651797)
# Conditions: human cells, dose response
# Sequence of Nuclear receptor coactivator 3 (Homo sapiens) (Q9Y6Q9 whole entry, looked up): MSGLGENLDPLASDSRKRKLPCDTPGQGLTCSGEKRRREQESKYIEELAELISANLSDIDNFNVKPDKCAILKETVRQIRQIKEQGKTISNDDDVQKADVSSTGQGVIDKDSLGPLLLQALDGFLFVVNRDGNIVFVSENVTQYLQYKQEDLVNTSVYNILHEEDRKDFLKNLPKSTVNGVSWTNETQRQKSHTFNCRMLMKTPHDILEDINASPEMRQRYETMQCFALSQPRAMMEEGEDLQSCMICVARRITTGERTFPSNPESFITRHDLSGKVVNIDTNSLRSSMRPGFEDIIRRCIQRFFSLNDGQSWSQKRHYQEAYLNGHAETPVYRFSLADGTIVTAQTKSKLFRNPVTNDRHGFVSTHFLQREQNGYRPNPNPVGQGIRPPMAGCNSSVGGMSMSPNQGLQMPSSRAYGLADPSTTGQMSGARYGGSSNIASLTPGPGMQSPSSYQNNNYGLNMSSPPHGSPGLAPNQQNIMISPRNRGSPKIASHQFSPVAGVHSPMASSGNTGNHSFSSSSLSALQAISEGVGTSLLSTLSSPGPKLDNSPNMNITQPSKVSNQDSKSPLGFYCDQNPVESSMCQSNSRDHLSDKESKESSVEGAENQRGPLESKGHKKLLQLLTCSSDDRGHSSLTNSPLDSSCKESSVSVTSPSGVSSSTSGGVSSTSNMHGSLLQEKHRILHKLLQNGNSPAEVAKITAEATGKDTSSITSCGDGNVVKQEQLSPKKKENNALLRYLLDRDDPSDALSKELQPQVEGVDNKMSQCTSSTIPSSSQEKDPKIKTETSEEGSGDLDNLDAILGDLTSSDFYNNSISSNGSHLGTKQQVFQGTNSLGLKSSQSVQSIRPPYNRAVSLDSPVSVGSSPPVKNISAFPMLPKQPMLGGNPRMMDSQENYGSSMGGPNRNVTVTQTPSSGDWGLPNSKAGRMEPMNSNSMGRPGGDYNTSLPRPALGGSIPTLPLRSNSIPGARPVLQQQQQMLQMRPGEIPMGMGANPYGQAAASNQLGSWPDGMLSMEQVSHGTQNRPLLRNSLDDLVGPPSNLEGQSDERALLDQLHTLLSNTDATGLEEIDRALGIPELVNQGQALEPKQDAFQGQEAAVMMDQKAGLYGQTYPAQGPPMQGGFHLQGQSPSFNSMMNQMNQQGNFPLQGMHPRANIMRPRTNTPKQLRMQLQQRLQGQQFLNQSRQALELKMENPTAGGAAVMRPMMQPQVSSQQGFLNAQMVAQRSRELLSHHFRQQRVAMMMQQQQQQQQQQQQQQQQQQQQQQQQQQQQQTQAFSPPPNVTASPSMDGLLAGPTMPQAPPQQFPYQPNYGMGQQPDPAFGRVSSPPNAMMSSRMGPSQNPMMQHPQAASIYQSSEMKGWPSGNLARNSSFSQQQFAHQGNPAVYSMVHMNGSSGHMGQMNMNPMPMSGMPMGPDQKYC
row,IC50,SMILES
1,8.22 µM,COc1ccc(NC(=O)CN(C)C(=O)C2(c3ccccc3)CCCC2)cc1
2,0.69 µM,COc1cc([C@@H]2c3cc4c(cc3C(OC3OC5COC(C)OC5C(O)C3O)C3COC(=O)[C@@H]32)OCO4)cc(OC)c1O (stereo partly drawn)
3,inactive,COc1ccc(Nc2ncnc3ccc(Br)cc23)c(OC)c1
